According to US6436945B2, “Substituted O6-benzyl-8-aza-guanines” (The United States of America as represented by the of …, priority 1994, dated 2002):

What was measured:
[1] = molecular target: T1, O^6-alkylguanine-DNA alkyltransferase (AGT) (Homo sapiens, UniProt P16455); experiment: AGT inactivation in HT29 cell-free extract; settings: for AGT inactivating activity in HT29 cell-free extracts, in words: comparison
T1 sequence (P16455 1-207): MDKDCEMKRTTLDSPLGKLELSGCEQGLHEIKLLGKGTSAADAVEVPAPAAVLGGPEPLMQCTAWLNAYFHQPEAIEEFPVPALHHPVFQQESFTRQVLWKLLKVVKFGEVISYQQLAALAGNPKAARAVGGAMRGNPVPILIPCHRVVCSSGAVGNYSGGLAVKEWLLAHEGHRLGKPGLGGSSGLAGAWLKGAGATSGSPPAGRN
Experimental: (§1) The data represent the dose of compound required to produce 50% inactivation in cell-free extracts upon incubation for 30 min or in cells upon incubation for 4 hr.

[2] = molecular target: T1, O^6-alkylguanine-DNA alkyltransferase (AGT); experiment: AGT inactivation in intact HT29 cells; settings: for ratio of ED50 values in cell-free extracts/intact cells: HT29; for AGT inactivating activity in intact HT29 cells, in words: comparison
Experimental: as §1

[3] = system: DU-145 prostate cancer cells; experiment: Killing of DU-145 prostate cancer cells by BCNU combined with AGT inactivators (colony formation)
Experimental: (§2) Cells were treated for 2 h with AGT inactivator prior to exposure to BCNU.

[4] = system: MCF-71 breast cancer cells; experiment: Killing of MCF-71 breast cancer cells by BCNU combined with AGT inactivators (colony formation)
Experimental: as §2

HT-29 colon cancer cells = experiment: Killing of HT-29 colon cancer cells by BCNU combined with AGT inactivators (colony formation); settings: for Colony Formation per 1000 cells: HT-29
Experimental: as §2

## O=c1nc(OCc2ccccc2)c2[nH]cnc2[nH]1 [Compound 4a, O^6-Benzylxanthine]
[1]
  EC50: 60000 nM
[2]
  EC50: 35000 nM

## Nc1nc(N)c(N)c(OCc2ccccc2)n1 [Compound 3c, 2,4,5-triamino-6-benzyloxypyrimidine]
[3]; inactivator 1 μM, BCNU 40 μM
  Colony Formation per 1000 cells: 378 ± 60 per 1000 cells
[3]; inactivator 10 μM, BCNU 40 μM
  Colony Formation per 1000 cells: 57 ± 7 per 1000 cells
[3]; inactivator 10 μM, BCNU none
  Colony Formation per 1000 cells: 429 ± 101 per 1000 cells
[1]
  EC50: 400 nM
[4]; inactivator 10 μM, BCNU 40 μM
  Colony Formation per 1000 cells: 12 ± 4 per 1000 cells
[4]; inactivator 10 μM, BCNU none
  Colony Formation per 1000 cells: 448 ± 55 per 1000 cells
[2]
  EC50: 300 nM
HT-29 colon cancer cells; BCNU 40 μM, statement covers HT29, DU-145 and MCF-71 cells (Tables 3-5)
  enhancement of BCNU cytotoxicity, in words: as effective as the 8-substituted O^6-bezylguanine derivatives and O^6-benzylguanine itself
HT-29 colon cancer cells; inactivator 1 μM, BCNU 40 μM
  Colony Formation per 1000 cells: 487 ± 32 per 1000 cells
HT-29 colon cancer cells; inactivator 10 μM, BCNU 40 μM
  Colony Formation per 1000 cells: 3 ± 1 per 1000 cells
HT-29 colon cancer cells; inactivator 10 μM, BCNU none
  Colony Formation per 1000 cells: 453 ± 59 per 1000 cells

## Nc1cc(OCc2ccccc2)nc(N)n1 [Compound 3b, 2,4-diamino-6-benzyloxypyrimidine]
[1]
  EC50: 15000 nM
[2]
  EC50: 5000 nM

## Cn1c(Br)nc2c(OCc3ccccc3)nc(N)nc21 [Compound 10a, O^6-Benzyl-8-bromo-9-methylguanine]
[1]
  EC50: 1900 nM
[2]
  EC50: 250 nM
  ratio of ED50 values in cell-free extracts/intact cells: 7.2
  AGT inactivating activity in intact HT29 cells, in words: significantly higher than their activity in cell-free extracts

## Nc1ncc([N+](=O)[O-])c(OCc2ccccc2)n1 [Compound 5a, 2-Amino-4-benzyloxy-5-nitropyrimidine]
[1]
  EC50: 400 nM
  AGT inactivating activity in HT29 cell-free extracts, in words: much more active than 3a
[2]
  EC50: 50 nM
  AGT inactivating activity in intact HT29 cells, in words: quite active in cells

## Nc1nc(OCc2ccccc2)c2nc(Br)[nH]c2n1 [Compound 1d, O^6-Benzyl-8-bromoguanine]
[3]; inactivator 1 μM, BCNU 40 μM
  Colony Formation per 1000 cells: 267 ± 39 per 1000 cells
[3]; inactivator 10 μM, BCNU 40 μM
  Colony Formation per 1000 cells: 16 ± 3 per 1000 cells
[3]; inactivator 10 μM, BCNU none
  Colony Formation per 1000 cells: 493 ± 90 per 1000 cells
[1]
  EC50: 80 nM
  AGT inactivating activity in HT29 cell-free extracts, in words: essentially as active as pyrimidines 3d and 3e
[4]; inactivator 10 μM, BCNU 40 μM
  Colony Formation per 1000 cells: 3 ± 1 per 1000 cells
[4]; inactivator 10 μM, BCNU none
  Colony Formation per 1000 cells: 380 ± 109 per 1000 cells
[4]; inactivator […], BCNU 40 μM
  Colony Formation per 1000 cells: 4 ± 3 per 1000 cells
[2]
  EC50: 60 nM
  ratio of ED50 values in cell-free extracts/intact cells: 1.6
  AGT inactivating activity in intact HT29 cells, in words: somewhat less active in cells than expected
HT-29 colon cancer cells; inactivator 1 μM, BCNU 40 μM
  Colony Formation per 1000 cells: 299 ± 30 per 1000 cells
HT-29 colon cancer cells; inactivator 10 μM, BCNU 40 μM
  Colony Formation per 1000 cells: 1 ± 0 per 1000 cells
HT-29 colon cancer cells; inactivator 10 μM, BCNU none
  Colony Formation per 1000 cells: 401 ± 22 per 1000 cells

## Fc1nc(OCc2ccccc2)c2nc[nH]c2n1 [Compound 4c, O^6-benzyl-2-fluorohypoxanthine]
[1]
  EC50: 48000 nM
[2]
  EC50: 12000 nM

## Nc1nc(N)c(Br)c(OCc2ccccc2)n1 [Compound 3f, 2,4-Diamino-6-benzyloxy-5-bromopyrimidine]
[1]
  EC50: 2000 nM
  AGT inactivating activity in HT29 cell-free extracts, in words: considerably more active than 3b
[2]
  EC50: 800 nM

## Nc1nc(OCc2ccccc2)c2[nH]c(=O)[nH]c2n1 [Compound 1c, O^6-Benzyl-8-oxoguanine]
[3]; inactivator 1 μM, BCNU 40 μM
  Colony Formation per 1000 cells: 329 ± 43 per 1000 cells
[3]; inactivator 10 μM, BCNU 40 μM
  Colony Formation per 1000 cells: 34 ± 3 per 1000 cells
[3]; inactivator 10 μM, BCNU none
  Colony Formation per 1000 cells: 379 ± 34 per 1000 cells
[1]
  EC50: 300 nM
[4]; inactivator 10 μM, BCNU 40 μM
  Colony Formation per 1000 cells: 4 ± 2 per 1000 cells
[4]; inactivator 10 μM, BCNU none
  Colony Formation per 1000 cells: 522 ± 78 per 1000 cells
[2]
  EC50: 150 nM
HT-29 colon cancer cells; inactivator 1 μM, BCNU 40 μM
  Colony Formation per 1000 cells: 221 ± 15 per 1000 cells
HT-29 colon cancer cells; inactivator 10 μM, BCNU 40 μM
  Colony Formation per 1000 cells: <1 per 1000 cells
HT-29 colon cancer cells; inactivator 10 μM, BCNU none
  Colony Formation per 1000 cells: 401 ± 22 per 1000 cells

## Cn1nnc2c(OCc3ccccc3)nc(N)nc21 [Compound 8a, 8-Aza-O^6-benzyl-9-methylguanine]
[1]
  EC50: 500 nM
[2]
  EC50: 80 nM
  ratio of ED50 values in cell-free extracts/intact cells: 6.3
  AGT inactivating activity in intact HT29 cells, in words: significantly higher than their activity in cell-free extracts
